In ChEMBL document CHEMBL1201862, “PubChem BioAssay data set” (2004):
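96-well plates; 48 h exposure; 5 concentrations. Endpoints by linear interpolation between flanking doses. Not reached: highest tested concentration assigned. GI50 marks 50% less growth.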 Calls of active or inactive are those of the source. Cut-off read from the data, not from the text of the source: active = GI50 up to about 1.1 µM and inactive = higher.

Tests used:
Test in all cases: NCI anticancer screen, dose series, 48 h
SK-MEL-5 = test system: SK-MEL-5
SF-268 = test system: SF-268
Malme-3M = test system: Malme-3M
U-251 = test system: U-251
COLO 205 = test system: COLO 205
SW-620 = test system: SW-620
CCRF-CEM = test system: CCRF-CEM
NCI-H522 = test system: NCI-H522
SK-MEL-2 = test system: SK-MEL-2
HL-60 = test system: HL-60
SK-MEL-28 = test system: SK-MEL-28
ACHN = test system: ACHN
MDA-N = test system: MDA-N
LOX IMVI = test system: LOX IMVI
HT-29 = test system: HT-29
IGROV-1 = test system: IGROV-1
SR = test system: SR
HCT-116 = test system: HCT-116
Hs-578T = test system: Hs-578T
RXF 393 = test system: RXF 393

SMILES	GI50 (SK-MEL-5)	GI50 (SF-268)	GI50 (Malme-3M)	GI50 (U-251)	GI50 (COLO 205)	GI50 (SW-620)	GI50 (CCRF-CEM)	GI50 (NCI-H522)	GI50 (SK-MEL-2)	GI50 (HL-60)	GI50 (SK-MEL-28)	GI50 (ACHN)	GI50 (MDA-N)	GI50 (LOX IMVI)	GI50 (HT-29)	GI50 (IGROV-1)	GI50 (SR)	GI50 (HCT-116)	GI50 (Hs-578T)	GI50 (RXF 393)
NC(=O)c1c[se]c(C2OC(CO)C(O)C2O)n1 (configuration not stated)	10.3 µM (inactive)	6.84 µM (inactive)	> 100 µM (inactive)	0.953 µM (active)	1.22 µM (inactive)	1.47 µM (inactive)	0.875 µM (active)	6.25 µM (inactive)	> 100 µM (inactive)	0.984 µM (active)	2.61 µM (inactive)	5.94 µM (inactive)	36.4 µM (inactive)	32.1 µM (inactive)	3.55 µM (inactive)	4.98 µM (inactive)	8.61 µM (inactive)	3.45 µM (inactive)	> 100 µM (inactive)	–
O=C(Cn1c(=O)oc2ccc(C(=O)c3ccccc3Cl)cc21)c1ccc([N+](=O)[O-])cc1	16.3 µM (inactive)	24.8 µM (inactive)	25.5 µM (inactive)	29.9 µM (inactive)	20.6 µM (inactive)	26.8 µM (inactive)	4.29 µM (inactive)	14.9 µM (inactive)	20.4 µM (inactive)	11.2 µM (inactive)	37.8 µM (inactive)	32.7 µM (inactive)	18.1 µM (inactive)	17 µM (inactive)	24.2 µM (inactive)	23.6 µM (inactive)	8.39 µM (inactive)	17.8 µM (inactive)	37.2 µM (inactive)	–
CNN1C(=O)c2c(N)c(C#N)c(-c3ccccc3)c(-c3ccccc3)c2C1=O	62.4 µM (inactive)	> 100 µM (inactive)	> 100 µM (inactive)	78.9 µM (inactive)	> 100 µM (inactive)	> 100 µM (inactive)	41.1 µM (inactive)	84.1 µM (inactive)	> 100 µM (inactive)	30.5 µM (inactive)	> 100 µM (inactive)	> 100 µM (inactive)	> 100 µM (inactive)	> 100 µM (inactive)	–	48.9 µM (inactive)	76.7 µM (inactive)	44.1 µM (inactive)	70.1 µM (inactive)	82.8 µM (inactive)
COC(=O)CN(CC(=O)NCCNC(=O)OC(C)(C)C)C1CCCCC1N(CC(=O)OC)CC(=O)OC (configuration not stated)	> 100 µM (inactive)	> 100 µM (inactive)	> 100 µM (inactive)	> 100 µM (inactive)	> 100 µM (inactive)	> 100 µM (inactive)	> 100 µM (inactive)	> 100 µM (inactive)	> 100 µM (inactive)	> 100 µM (inactive)	> 100 µM (inactive)	> 100 µM (inactive)	> 100 µM (inactive)	> 100 µM (inactive)	> 100 µM (inactive)	> 100 µM (inactive)	> 100 µM (inactive)	> 100 µM (inactive)	> 100 µM (inactive)	–
COC(=O)/C=C/c1cnc2c(c1)oc(=O)n2C	> 100 µM (inactive)	> 100 µM (inactive)	> 100 µM (inactive)	> 100 µM (inactive)	> 100 µM (inactive)	> 100 µM (inactive)	> 100 µM (inactive)	–	> 100 µM (inactive)	> 100 µM (inactive)	> 100 µM (inactive)	> 100 µM (inactive)	> 100 µM (inactive)	> 100 µM (inactive)	> 100 µM (inactive)	> 100 µM (inactive)	> 100 µM (inactive)	> 100 µM (inactive)	> 100 µM (inactive)	–
COc1cc(OC)nc(-n2c(N)c(C#N)c3ccc([N+](=O)[O-])cc3c2=O)n1	> 100 µM (inactive)	> 100 µM (inactive)	–	92.3 µM (inactive)	> 100 µM (inactive)	> 100 µM (inactive)	> 100 µM (inactive)	18.3 µM (inactive)	> 100 µM (inactive)	> 100 µM (inactive)	> 100 µM (inactive)	> 100 µM (inactive)	> 100 µM (inactive)	> 100 µM (inactive)	> 100 µM (inactive)	79.3 µM (inactive)	> 100 µM (inactive)	> 100 µM (inactive)	> 100 µM (inactive)	–
O=c1cc(NCC2CCCCC2)[nH]c(=O)[nH]1	> 100 µM (inactive)	> 100 µM (inactive)	> 100 µM (inactive)	> 100 µM (inactive)	> 100 µM (inactive)	> 100 µM (inactive)	> 100 µM (inactive)	–	–	> 100 µM (inactive)	> 100 µM (inactive)	> 100 µM (inactive)	> 100 µM (inactive)	> 100 µM (inactive)	–	> 100 µM (inactive)	> 100 µM (inactive)	> 100 µM (inactive)	> 100 µM (inactive)	> 100 µM (inactive)
O=C1Nc2cccc(C(F)(F)F)c2/C1=N/Nc1ccccc1[N+](=O)[O-]	21.4 µM (inactive)	40.9 µM (inactive)	–	21 µM (inactive)	29.4 µM (inactive)	33 µM (inactive)	40.6 µM (inactive)	22.4 µM (inactive)	> 100 µM (inactive)	32.9 µM (inactive)	63.5 µM (inactive)	16.1 µM (inactive)	17.7 µM (inactive)	17.1 µM (inactive)	36.4 µM (inactive)	0.404 µM (active)	0.912 µM (active)	37.6 µM (inactive)	27.3 µM (inactive)	> 100 µM (inactive)
COC(=O)c1c(O)ccc2c1c1c(n2CCc2ccccc2)C(=O)c2ccccc2C1	17.6 µM (inactive)	13.7 µM (inactive)	32.3 µM (inactive)	21.9 µM (inactive)	14.6 µM (inactive)	30.1 µM (inactive)	21.4 µM (inactive)	–	15.8 µM (inactive)	28.9 µM (inactive)	19.5 µM (inactive)	–	24.4 µM (inactive)	30.1 µM (inactive)	24.4 µM (inactive)	19.6 µM (inactive)	29.7 µM (inactive)	15.3 µM (inactive)	29.7 µM (inactive)	13.3 µM (inactive)
c1ccc(-c2ccc(/N=N/N3CCCC3)cc2)cc1	> 100 µM (inactive)	> 100 µM (inactive)	–	> 100 µM (inactive)	> 100 µM (inactive)	> 100 µM (inactive)	> 100 µM (inactive)	> 100 µM (inactive)	> 100 µM (inactive)	–	–	> 100 µM (inactive)	> 100 µM (inactive)	> 100 µM (inactive)	–	> 100 µM (inactive)	7.11 µM (inactive)	> 100 µM (inactive)	> 100 µM (inactive)	> 100 µM (inactive)
O=[N+]([O-])/C=C/COCc1cc2c(cc1Br)OCO2	20.2 µM (inactive)	19.1 µM (inactive)	–	17 µM (inactive)	23.1 µM (inactive)	16 µM (inactive)	1.15 µM (inactive)	22 µM (inactive)	–	–	11.6 µM (inactive)	16.4 µM (inactive)	18.2 µM (inactive)	33.8 µM (inactive)	20.8 µM (inactive)	29.8 µM (inactive)	23.4 µM (inactive)	17.6 µM (inactive)	23.6 µM (inactive)	16.7 µM (inactive)
Cc1cc(O)c(C(O)c2ccccn2)cc1O (configuration not stated)	23.2 µM (inactive)	75.7 µM (inactive)	20.7 µM (inactive)	36.7 µM (inactive)	10 µM (inactive)	21.1 µM (inactive)	3.21 µM (inactive)	3.78 µM (inactive)	–	11.1 µM (inactive)	18.7 µM (inactive)	6.01 µM (inactive)	18.7 µM (inactive)	16.5 µM (inactive)	21.4 µM (inactive)	35.8 µM (inactive)	3.01 µM (inactive)	16.7 µM (inactive)	45.8 µM (inactive)	16.3 µM (inactive)
NNC(=O)CC(=O)Nc1ccc(C(=O)O)cc1	> 100 µM (inactive)	> 100 µM (inactive)	> 100 µM (inactive)	> 100 µM (inactive)	> 100 µM (inactive)	> 100 µM (inactive)	> 100 µM (inactive)	> 100 µM (inactive)	> 100 µM (inactive)	> 100 µM (inactive)	–	> 100 µM (inactive)	> 100 µM (inactive)	> 100 µM (inactive)	> 100 µM (inactive)	> 100 µM (inactive)	> 100 µM (inactive)	> 100 µM (inactive)	> 100 µM (inactive)	> 100 µM (inactive)
COc1ccccc1N1C(=O)/C(=C\c2cc(OC)c(OC)c(OC)c2)S(=O)(=O)C1c1ccccc1 (configuration not stated)	26.4 µM (inactive)	44.4 µM (inactive)	26.9 µM (inactive)	18.6 µM (inactive)	26.9 µM (inactive)	30 µM (inactive)	15.6 µM (inactive)	17 µM (inactive)	26.9 µM (inactive)	–	27.4 µM (inactive)	41.2 µM (inactive)	18.4 µM (inactive)	29.4 µM (inactive)	–	–	23.7 µM (inactive)	23.8 µM (inactive)	32.7 µM (inactive)	10.6 µM (inactive)
CN(C)/C=N\c1c(Br)cc(Br)c2nonc12	> 100 µM (inactive)	> 100 µM (inactive)	> 100 µM (inactive)	–	> 100 µM (inactive)	> 100 µM (inactive)	> 100 µM (inactive)	> 100 µM (inactive)	> 100 µM (inactive)	> 100 µM (inactive)	> 100 µM (inactive)	> 100 µM (inactive)	> 100 µM (inactive)	–	> 100 µM (inactive)	> 100 µM (inactive)	> 100 µM (inactive)	> 100 µM (inactive)	66.4 µM (inactive)	> 100 µM (inactive)
